These results are taken from patent US8609731B2, “Substituted tetrahydronaphthalenes, process for the preparation thereof and the use thereof as medicaments” (SANOFI, priority 2007, dated 2013).

≈ marks a conversion by molar mass, not a printed value.

Data set [1] addresses T1, hERG channel (Homo sapiens, UniProt Q12809).
T1 construct: expressed in transfected cells; host or cells: CHO cells (ATCC), pcDNA3 vector, G418 selection
The data set is described as follows: hERG channel blockade, whole-cell patch clamp in CHO cells expressing hERG. The note with it: CHO cells with stable hERG expression, room temperature, read-out: hERG Inh. IC50. The class given is cell-based. The text has this: The aim of the test is to determine the concentration range in which the test compound blocks the cardiac hERG channel. Blockade of the hERG channel, which is responsible for the Ikr current in the human heart, is associated with potentially fatal arrhythmias.
For expression of the cDNA encoding the hERG channel it was cloned into the pcDNA3 vector (Invitrogen). Chinese hamster […] (CHO, American Type Culture Collection, Rockville, Md.) were transfected using lipofectamine (GIBCO/BRL, Grand Island, N.Y.) with the hERG cDNA and selected using G418 (GIBCO/BRL, Grand Island, N.Y.; 500 μg/ml). CHO cells with stable expression of the hERG channel were cultured on a HAM F-12 medium which was supplemented with 10% native bovine serum, 1× penicillin/streptomycin and 500 μg/ml G418 in an atmosphere of 95% air/5% carbon dioxide.
The cells selected for the patch clamp experiment are seeded on a plastic support 18-24 hours before the experiment. HERG channel currents are recorded at room temperature by the whole-cell variant of the patch clamp technique using an Axopatch 200B amplifier (Axon Instruments, Foster City, Calif.). The electrodes (3-6 megaohms resistance) are prepared from TW150F glass capillaries (World Precision Instruments, Sarasota, Fla.) and filled with the pipette solution (120 mM potassium aspartate, 20 mM KCl, 4 mM Na2ATP, 5 mM HEPES, 1 mM MgCl2; adjusted to pH 7.2 with KOH). The hERG channel currents are induced by a positive voltage pulse (20 mV) followed by a negative pulse (−40 mV) and are recorded for later analysis. As soon as the hERG channel current of the cell flushed with the control solution ([…], 5 mM KCl, 2.8 mM NaOAc, 1 mM MgCl2, 10 mM HEPES; 10 mM glucose, 1 mM CaCl2; adjusted to pH 7.4 with NaOH) is stable, the cell is perfused with the test compound dissolved in the above control solution (by dilution of a 10 or 100 mM DMSO solution of the test compound so that the DMSO content is no more than 0.1%). The current is followed continuously until no further changes occur. The same procedure is repeated with increasing concentrations of the test compound. The maximum amplitude of the hERG current is measured in picoAmperes (pA) for each concentration and for each cell. The maximum amplitude in pA for each concentration of the test compound is compared with that of the pure control solution in the same cell and calculated as % of the control value.
Evaluation: The test compound is tested at various concentrations in 3-5 CHO cells which express the hERG channel. The IC50 is obtained by use of nonlinear least squares regression (GraphPAD Software, San Diego, Calif.).

Data set [2] can be described thus: physchem. The following applies: pH 7.4, aqueous buffer, kinetic from dmso stock. The class given is physicochemical. The method, then:
A DMSO solution of the test compound (2.5 mM; 0.5 μl) is pipetted into 200 μl of an aqueous test solution (e.g. phosphate-buffered saline, 10×, 1M, Sigma, adjusted to 10 mM, pH 7.4) in a 96-well microtiter plate, and the turbidity is measured at the resulting theoretical concentration for the test compound of 6.25 μM using a nephelometer (e.g. Nephelostar Galaxy, BMG Labtech). The concentration of the test compound in the aqueous test solution is then raised to a theoretical 12.5 μM by adding further DMSO solution (2.5 mM; 0.5 μl), and the turbidity measurement is repeated. Further additions of DMSO solutions (1 μl, 2.5 mM; 0.5 μl, 10 mM; then 9×1 μl, 10 mM resulting in theoretical concentrations of 25 μM, 50 μM, 100 μM, 150 μM, 200 μM, 250 μM, 300 μM, 350 μM, 400 μM, 450 μM and 500 μM) with turbidity measurement in between complete the measurement process.
Evaluation: The turbidity values from the nephelometer are plotted against the theoretical concentration of the test compound in the aqueous test solution. As soon as a significant turbidity is detected (e.g. 5 times above the control value of the aqueous test solution) at a theoretical concentration, the level of concentration below this is stated to be the solubility limit of the test compound in the test solution. Thus, the maximum possible measurement range emerges as values <6.25 μM, 6.25−500 μM and >500 μM.

The target in data set [3] is T2, human MCH receptor (Homo sapiens, UniProt Q99705).
T2 construct: expressed in transfected cells
The data set is described as follows: calcium mobilization assay (FLIPR); functional IC50 of MCH1R antagonists. The class given is cell-based. The note with it: recombinant HEK293 cell line expressing human MCH receptor; calcium flux after addition of agonist MCH. An excerpt:
Influence on the MCH Receptor In Vitro; Determination of Functional IC50 Values of MCH1R Antagonists
Cloning of the cDNA for the human MCH receptor, preparation of a recombinant HEK293 cell line which expresses the human MCH receptor, and functional measurements with the recombinant cell line took place in analogy to the description by Audinot et al. (J. Biol. Chem. 2001, 276, 13554-13562). A difference from the reference was, however, the use of the plasmid pEAK8 from EDGE Biosystems (USA) for the construction of the expression vector. The host used for the transfection was a transformed HEK cell line named “PEAK Stable Cells” (likewise from EDGE Biosystems). Functional measurements of the cellular calcium flux after addition of agonist (MCH) in the presence of ligand of the invention took place with the aid of the FLIPR apparatus from Molecular Devices (USA), using protocols of the apparatus manufacturer. The compounds of the invention show a significant inhibition (>30%) of the signal induced by the agonist at a concentration of 100 μM, preferably at 10 μM, particularly preferably at 1 μM, very particularly preferably at 100 nM and very very particularly preferably at 10 nM.
A general note: Calcium assays in cells follow changes in intracellular calcium, usually with a dye or a luminescent sensor.

T1 sequence (Q12809 whole entry): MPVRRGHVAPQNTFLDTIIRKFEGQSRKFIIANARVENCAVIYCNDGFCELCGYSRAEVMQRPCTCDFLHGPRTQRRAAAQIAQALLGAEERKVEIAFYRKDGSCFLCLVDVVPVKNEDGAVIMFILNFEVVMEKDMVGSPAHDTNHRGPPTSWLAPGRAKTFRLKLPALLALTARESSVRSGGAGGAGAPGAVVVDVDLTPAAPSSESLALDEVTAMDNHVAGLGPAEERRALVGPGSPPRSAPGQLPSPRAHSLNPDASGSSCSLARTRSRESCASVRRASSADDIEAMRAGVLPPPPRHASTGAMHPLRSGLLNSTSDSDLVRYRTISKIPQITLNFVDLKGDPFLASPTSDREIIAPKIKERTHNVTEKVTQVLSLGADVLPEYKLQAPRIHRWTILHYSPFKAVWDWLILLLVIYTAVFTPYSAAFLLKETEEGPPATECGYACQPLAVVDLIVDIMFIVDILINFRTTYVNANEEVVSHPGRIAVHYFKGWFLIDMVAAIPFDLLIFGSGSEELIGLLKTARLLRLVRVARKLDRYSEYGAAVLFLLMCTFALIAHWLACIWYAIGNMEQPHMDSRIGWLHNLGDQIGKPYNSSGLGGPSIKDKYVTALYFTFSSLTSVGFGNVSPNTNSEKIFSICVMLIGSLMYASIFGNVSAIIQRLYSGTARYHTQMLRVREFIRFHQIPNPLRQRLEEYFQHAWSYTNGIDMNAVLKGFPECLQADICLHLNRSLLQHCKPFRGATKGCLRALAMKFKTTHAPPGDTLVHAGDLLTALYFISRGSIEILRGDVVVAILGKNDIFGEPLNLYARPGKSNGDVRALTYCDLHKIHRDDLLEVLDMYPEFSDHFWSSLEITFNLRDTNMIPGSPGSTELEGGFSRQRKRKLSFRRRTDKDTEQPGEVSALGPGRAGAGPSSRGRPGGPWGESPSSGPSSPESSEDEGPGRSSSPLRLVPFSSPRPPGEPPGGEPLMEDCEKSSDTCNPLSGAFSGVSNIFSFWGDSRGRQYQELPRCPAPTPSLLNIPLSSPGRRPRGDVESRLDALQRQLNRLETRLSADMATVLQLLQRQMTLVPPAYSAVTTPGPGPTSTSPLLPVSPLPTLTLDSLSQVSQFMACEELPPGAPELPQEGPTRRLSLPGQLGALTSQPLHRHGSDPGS
T2 sequence (Q99705 whole entry): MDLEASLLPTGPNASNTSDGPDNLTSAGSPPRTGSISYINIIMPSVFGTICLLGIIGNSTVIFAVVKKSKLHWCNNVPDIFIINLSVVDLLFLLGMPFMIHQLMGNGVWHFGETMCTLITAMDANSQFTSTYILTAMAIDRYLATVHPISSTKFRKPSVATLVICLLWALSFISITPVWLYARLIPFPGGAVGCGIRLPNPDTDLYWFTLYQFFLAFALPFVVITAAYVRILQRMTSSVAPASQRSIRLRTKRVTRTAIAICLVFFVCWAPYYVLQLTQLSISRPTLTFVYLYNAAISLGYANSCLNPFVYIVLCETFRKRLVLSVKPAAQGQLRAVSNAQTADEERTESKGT

Regarding `O=C(N[C@H]1CCc2cc(CN3CCCC3)ccc2C1)c1ccc(OC[C@@H]2CCCO2)cc1` [Example 1, N-((S)-6-Pyrrolidin-1-ylmethyl-1,2,3,4-tetrahydronaphthalen-2-yl)-4-[(S)-1-(tetrahydrofuran-2-yl)methoxy]benzamide], the IC50 in data set [1] is more than 30 µM; in data set [3], 90 nM. Moreover, in data set [2], the solubility (kinetic) is more than 500 µM.
On to `O=C(N[C@H]1CCc2cc(CNC3CCCCC3)ccc2C1)c1ccc(OC[C@@H]2CCCO2)cc1` [Example 3-6], for which, in data set [1], the IC50 is more than 10 µM. The molecule also showed a kinetic solubility in data set [2] of more than 500 µM.
For the molecule `CC(C)(C)CNCc1ccc2c(c1)CC[C@H](NC(=O)c1ccc(OC[C@@H]3CCCO3)cc1)C2` [Example 3-34], the figures for the IC50 in data set [1] and in data set [3] were more than 30 µM and 100 nM, respectively. The molecule also had a solubility (kinetic) in data set [2] of 50 µM (≈ 22.5 µg/mL).
Turning to `O=C(N[C@H]1CCc2cc(CN3CC4CCC3C4)ccc2C1)c1ccc(OC[C@@H]2CCCO2)cc1` (stereo partly shown) [Example 3-83], the IC50 in data set [1] was more than 30 µM. The molecule further returned a kinetic solubility in data set [2] of more than 500 µM.
Regarding `CC1(C)CCN(Cc2ccc3c(c2)CC[C@H](NC(=O)c2ccc(OC[C@@H]4CCCO4)cc2)C3)CC1` [Example 3-166], the 50% inhibitory concentration (IC50) in data set [1] is more than 10 µM; in data set [3], 110 nM. This molecule registered a solubility (kinetic) in data set [2] of 450 µM (≈ 214 µg/mL).
In the case of `COC1CCN(Cc2ccc3c(c2)CC[C@H](N2CCc4cc(OC[C@@H]5CCCO5)ccc4C2=O)C3)CC1` [Example 14, 2-[(S)-6-(4-Methoxypiperidin-1-ylmethyl)-1,2,3,4-tetrahydronaphthalen-2-yl]-6-[(S)-1-(tetrahydrofuran-2-yl)methoxy]-3,4-dihydro-2H-isoquinolin-1-one], the IC50 in data set [1] was more than 10 µM; in data set [3], 630 nM. This molecule registered a solubility (kinetic) in data set [2] of more than 500 µM.

One may read the IC50 as the concentration needed to halve the response being measured. In general, kinetic solubility refers to the concentration staying in solution when a stock, usually in DMSO, is diluted into the medium.
